Where “and” joins values, the source holds several entries; their conditions need not be identical. Equal values may be shown once. Read-outs that look alike come from different tables or passages of the source.

Consider 25 molecules from patent publication US10703784B2, “Antigens and epitopes derived from Mycobacterium tuberculosis” (priority 2011, dated 2020).

Assay [1] has as its system PBMCs from LTBI donors (IFN-γ production). It counts as cell-based, human. Conditions: for Resp. freq.: fraction of 28 LTBI donors responding to epitopes of the antigen; for Resp. freq. / Total SFC: ex vivo IFN-γ ELISPOT; for Total SFC: total spot-forming cells, LTBI donors.
The subject of assay [2] is PBMCs depleted of CD4+ or CD8+ T cells. It is filed as cell-based, human.
The mark [3] stands for this setting: individual MTB epitope peptide, one value per responding LTBI donor.
[4] abbreviates: phenotype of the responding T cells per donor, n.d. = assay not done.

With AAASWDALAAELASA, the SFC in assay [1] (setting [3]) is 217.5 and 130.0 and 440.8. The T cell phenotype entry in assay [2] (setting [4]) is “CD4”. For the molecule AAGGWDSLAAELATT, the SFC in assay [1] (setting [3]) is 130.0 and 31.7. For the same molecule, the T cell phenotype result in assay [2] (setting [4]) is “CD4 and undetectable”. On to AAIHEMFVNTLQMSS, for which the SFC in assay [1] (setting [3]) was 25.0 and 165.0. Also, the T cell phenotype result in assay [2] (setting [4]) is “CD8”. Consider AAIHEMFVNTLVASS, for which the SFC in assay [1] (setting [3]) is 41.7 and 160.0 and 26.7 and 61.7. The T cell phenotype entry in assay [2] (setting [4]) was “CD8 and undetectable (2×)”.

As to AALPLLFFALAGQRI, in assay [1] (setting [3]), the SFC was 81.7 and 36.7 and 33.3 and 143.3 and 45.0. Moreover, the T cell phenotype entry in assay [2] (setting [4]) is “CD4 (3×) and undetectable (2×)”. AATQARAAAAAFEAA yielded an SFC in assay [1] (setting [3]) of 25.0. Moreover, in assay [2] (setting [4]), the T cell phenotype entry is “undetectable”. On to AAVPAVGAAAGAPAA, for which the SFC in assay [1] (setting [3]) was 203.3 and 28.3 and 20.0 and 30.0. Besides, the T cell phenotype result in assay [2] (setting [4]) was “CD4 (2×) and undetectable (2×)”. Take ADYLRMWIQAATVMS: the SFC in assay [1] (setting [3]) is 375.0 and 35.0 and 128.3 and 48.3 and 26.7 and 75.0. Besides, the T cell phenotype entry in assay [2] (setting [4]) was “CD4 (5×) and undetectable”. Consider AEAPAAAAAPEEQVQ, for which the SFC in assay [1] (setting [3]) is 20.0. Besides, in assay [2] (setting [4]), the T cell phenotype result is listed as “CD4”.

AELMILIATNLLGQN: the SFC in assay [1] (setting [3]) is 33.3 and 90.0. Also, in assay [2] (setting [4]), the T cell phenotype result is “CD4 and undetectable”. Turning to AGCQTYKWETFLTSE, in assay [1], the SFC was 60.0 and 55.8 and 36.7 and 51.7. Further, the T cell phenotype result in assay [2] is “CD4 and undetectable”.

ALLPRAGAAAAAALP: in assay [1] (setting [3]), the SFC is 45.0 and 26.7. Also, the T cell phenotype entry in assay [2] (setting [4]) is given as “CD4”. For the molecule ALQSHDDVALVSVMW, the SFC in assay [1] (setting [3]) was 28.3 and 61.7. The T cell phenotype entry in assay [2] (setting [4]) is “CD4 and undetectable”.

In the case of ALSAEYAAVAQELSV, in assay [1] (setting [3]), the SFC is 31.7 and 46.7. Also, the T cell phenotype entry in assay [2] (setting [4]) was “CD4”. For the molecule ALSRVHSMFLGTGGS, the SFC in assay [1] (setting [3]) is 71.7 and 43.3. Besides, the T cell phenotype entry in assay [2] (setting [4]) was “CD4”.

Turning to APQINFFYYLGEPIV, in assay [1] (setting [3]), the SFC stood at 20.0. In addition, the T cell phenotype result in assay [2] (setting [4]) is recorded as “undetectable”. For APYVAWMRATAIQAE, in that order: 41.7 and “undetectable”.

With AVLVATNFFGINTIP, in assay [2], the T cell phenotype entry was “CD4 and undetectable”. Still for that read-out and setting: in the case of GAMVATNFFGINTIP it was “CD4 and undetectable”.

B1: Rv1441c: MTB protein, novel CD4 T cell antigen; PE/PPE (protein, listed as Mycobacterium tuberculosis)
chain: MSNVMVVPGMLSAAAADVASIGAALSAANGAAAPTTAGVLAAGADEVSAAIASLFSGYARDYQALSAQMARFHQQFVQALTASVGSYAAAEAANASPLQALEQQVLAAINAPTQTLLGRPLIGNGADGLPGQNGGAGGLLWGNGGNGGAGDAAHPNGGNGGDAGMFGNGGAGGAGYSPAAGTGAAGGAGGAGGAGGWLSGNGGAGGNGGTGASGADGGGGLPPVPASPGGNGGGGDAGGAAGMFGTGGAGGTGGDGGAGGAGDSPNSGANGARGGDGGNGAAGGAGGRLFGNGGAGGNGGTAGQGGDGGTALGAGGIGGDGGTGGAGGTGGTAGIGGSSAGAGGAGGDGGAGGTGGGSSMIGGKGGTGGNGGVGGTGGASALTIGNGSSAGAGGAGGAGGTGGTGGYIESLDGKGQAGNGGNGGNGAAGGAGGGGTGAGGNGGAGGNGGDGGPSQGGGNPGFGGDGGTGGPGGVGVPDGIGGANGAQGKHG
As for B1, in assay [1], the Resp. freq. turned out to be 11% and the “Total SFC” value came to 86 SFC.

B2: Rv2490c: MTB protein, novel CD4 T cell antigen; PE/PPE (protein, listed as Mycobacterium tuberculosis)
chain: MQSMSFDPAVADIGSQVVNNAFQGLQAGAVAWVSLSSLLPAGAEEVSAWAVTAFTTAATGLLALNQAAQEELRKAGEVFTAIARMYSDADVRAAACLLEAIPRPGQTLARE
Regarding B2, in assay [1], the Resp. freq. was 11% and the “Total SFC” value worked out at 64 SFC.

B3: Rv3024c: MTB protein, novel CD4 T cell antigen; Information pathways, Island 2 (protein, listed as Mycobacterium tuberculosis)
chain: MKVLAAMSGGVDSSVAAARMVDAGHEVVGVHMALSTAPGTLRTGSRGCCSKEDAADARRVADVLGIPFYVWDFAEKFKEDVINDFVSSYARGETPNPCVRCNQQIKFAALSARAVALGFDTVATGHYARLSGGRLRRAVDRDKDQSYVLAVLTAQQLRHAAFPIGDTPKRQIRAEAARRGLAVANKPDSHDICFIPSGNTKAFLGERIGVRRGVVVDADGVVLASHDGVHGFTIGQRRGLGIAGPGPNGRPRYVTAIDADTATVHVGDVTDLDVQTLTGRAPVFTAGAAPSGPVDCVVQVRAHGETVSAVAELIGDALFVQLHAPLRGVARGQTLVLYRPDPAGDEVLGSATIAGASGLSTGGNPGA
Consider B3, for which, in assay [1], the Resp. freq. amounted to 32% and the “Total SFC” value is reported as 1630 SFC.

B4: Rv0290: MTB protein, novel CD4 T cell antigen; Cell wall and cell processes, Island 1, Esx-3 (protein, listed as Mycobacterium tuberculosis)
chain: MSGTVMQIVRVAILADSRLTEMALPAELPLREILPAVQRLVVPSAQNGDGGQADSGAAVQLSLAPVGGQPFSLDASLDTVGVVDGDLLVLQPVPAGPAAPGIVEDIADAAMIFSTSRLKPWGIAHIQRGALAAVIAVALLATGLTVTYRVATGVLAGLLAVAGIAVASALAGLLITIRSPRSGIALSIAALVPIGAALALAVPGKFGPAQVLLGAAGVAAWSLIALMIPSAERERVVAFFTAAAVVGASVALAAGAQLLWQLPLLSIGCGLIVAALLVTIQAAQLSALWARFPLPVIPAPGDPTPSAPPLRLLEDLPRRVRVSDAHQSGFIAAAVLLSVLGSVAIAVRPEALSVVGWYLVAATAAAATLRARVWDSAACKAWLLAQPYLVAGVLLVFYTATGRYVAAFGAVLVLAVLMLAWVVVALNPGIASPESYSLPLRRLLGLVAAGLDVSLIPVMAYLVGLFAWVLNR
In the case of B4, in assay [1], the Resp. freq. was 29% and the “Total SFC” value turned out to be 1552 SFC.

B5: Rv1366: MTB protein, novel CD4 T cell antigen; Conserved hypotheticals (protein, listed as Mycobacterium tuberculosis)
chain: MVVALVGSAIVDLHSRPPWSNNAVRRLGVALRDGVDPPVDCPSYAEVMLWHADLAAEVQDRIEGRSWSASELLVTSRAKSQDTLLAKLRRRPYLQLNTIQDIAGVRIDADLLLGEQTRLAREIADHFGADQPAIHDLRDHPHAGYRAVHVWLRLPAGRVEIQIRTILQSLWANFYELLADAYGRGIRYDERPEQLAAGVVPAQLQELVGVMQDASADLAMHEAEWQHCAEIEYPGQRAMALGEASKNKATVLATTKFRLERAINEAESAGGGG
With B5, in assay [1], the Resp. freq. worked out at 11% and the “Total SFC” value worked out at 308 SFC.

B6: Rv1317c: MTB protein, novel CD4 T cell antigen; Information pathways (protein, listed as Mycobacterium tuberculosis)
chain: MHDDFERCYRAIQSKDARFDGWFVVAVLTTGVYCRPSCPVRPPFARNVRFLPTAAAAQGEGFRACKRCRPDASPGSPEWNVRSDVVARAMRLIADGTVDRDGVSGLAAQLGYTIRQLERLLQAVVGAGPLALARAQRMQTARVLIETTNLPFGDVAFAAGFSSIRQFNDTVRLACDGTPTALRARAAARFESATASAGTVSLRLPVRAPFAFEGVFGHLAATAVPGCEEVRDGAYRRTLRLPWGNGIVSLTPAPDHVRCLLVLDDFRDLMTATARCRRLLDLDADPEAIVEALGADPDLRAVVGKAPGQRIPRTVDEAEFAVRAVLAQQVSTKAASTHAGRLVAAYGRPVHDRHGALTHTFPSIEQLAEIDPGHLAVPKARQRTINALVASLADKSLVLDAGCDWQRARGQLLALPGVGPWTAEVIAMRGLGDPDAFPASDLGLRLAAKKLGLPAQRRALTVHSARWRPWRSYATQHLWTTLEHPVNQWPPQEKIA
For the molecule B6, in assay [1], the Resp. freq. was determined as 11% and the “Total SFC” value is recorded as 97 SFC.
